Experimental data taken from patent US20150132339A1, “ADJUVANTED FORMULATIONS OF STR[…]” (NOVARTIS AG, priority 2012, published 2015).

Tests used:
Assay type in all cases: physicochemical
[1] = Adsorption of compound K2 to aluminium hydroxide adjuvant (Al—H); conditions: Al—H 2 mg/ml
Description: (§1) To determine whether the K2 remains adsorbed to Al—H, compositions were prepared as above.

[2] = Degradation after formulation; conditions: RrgB321 / K2 / Al—H formulation
Description: (§2) The combination of RrgB321 used in this study corresponds to a fusion between RrgB sequences from (3) Taiwan-23F (2) Finland 6B-12 (1) TIGR4, and thus comprises pili of clades III, II and I. Details of RrgB321 are provided in references 235 and 236. RrgB321 was expressed with a His tag. The final RrgB321 vaccine composition contains antigen (0.4 mg/ml), compound K2 (2 mg/ml), Al—H (2 mg/ml), NaCl (9 mg/ml), histidine buffer (10 mM, pH 6.5), formulation volume: 0.05 ml (in water).
as §1

[3] = Adsorption of RrgB321 to Al—H (SDS-PAGE)
Description: as §2, §1

Row | Molecule | compound K2 adsorbed to the Al—H ([1]; at all strengths) [%] | K2 remains adsorbed to Al—H ([1]; HPLC, RrgB321 composition) | degradation patterns after formulation [2] | RrgB321 adsorption to Al—H ([3]; in the absence of K2) [%] | RrgB321 adsorption to Al—H ([3]; in the presence of K2)
1 | Cc1cc(OCCOCCOCCP(=O)(O)O)ccc1CCc1cnc2c(N)nc3cc(CCC(=O)O)ccc3c2c1 [compound K2, 3-(5-amino-2-(2-methyl-4-(2-(2-(2-phosphonoethoxy)ethoxy)ethoxy)phenethyl)benzo[f]-[1,7]naphthyridin-8-yl)propanoic acid] | > 95 | at least 97% | Neither antigen nor K2 showed detectable degradation patterns | – | –
2 | RrgB321: fusion between RrgB sequences from Taiwan-23F, Finland 6B-12 and TIGR4 (clades III, II, I), e.g. SEQ ID NO: 250, His tag | – | – | Neither antigen nor K2 showed detectable degradation patterns | > 95 | approximately 50%
